Structures are written as SMILES. Entries after “also recorded” stand apart in the source; their conditions may differ. Where only a bound is given, the exact number is not on record here.

One data set addresses 12-LOX (Homo sapiens (Human), UniProt P18054).
Data set [1] deals with human donor islet preparations. As to the kind of experiment: Glucose-stimulated insulin secretion in human islets. The format is cell-based. To be noted: cytokines (TNFα, IL-1β, IFNγ); 3 mM or 18 mM glucose. As for the experimental part:
FIGS. 3D and 3E show results from glucose-stimulated insulin secretion in human donor islet preparations in response to 3 mM glucose (Low) or 18 mM glucose (High) for control (untreated) islets. […] FIGS. 3D and 3E represent results obtained in different human donor islet preparations.

Data set [2] is described as follows: Stability in aqueous buffers and glutathione. The format is physicochemical.
Data set [3] deals with washed human platelets. As to the kind of experiment: PAR4-AP-induced calcium mobilization. The class given is cell-based. To be noted: 200 μM PAR4-AP; increasing concentrations. As for the experimental part: (§1) Blood was centrifuged at 200 g for 13 min at room temperature.
Data set [4] in a line: PBS buffer (pH 7.4) solubility. The class given is physicochemical.
Data set [5] in a line: Microsomal stability (rat). The class given is in vitro ADME.
The nature of a further data set: mouse plasma stability. The format is in vitro ADME.
For data set [6], the system named is washed human platelets. As to the kind of experiment: PAR4-AP-induced platelet aggregation. The class given is cell-based. As for the experimental part: as §1
A short description of data set [7]: Parallel Artificial Membrane Permeability Assay (PAMPA). To be noted: PAMPA at pH 7.4.
A further data set relates to Mouse beta cells (BTC3). As to the kind of experiment: Mouse Beta cells (12-HETE Inhibition) Assay. The conditions noted are these: AA/IONO.
Data set [8] deals with human epithelial 15-lipoxygenase-2 (15-LOX-2) (Homo sapiens (Human), UniProt O15296). As to the kind of experiment: biochemical.
Chain of human epithelial 15-lipoxygenase-2 (15-LOX-2) (O15296 whole entry): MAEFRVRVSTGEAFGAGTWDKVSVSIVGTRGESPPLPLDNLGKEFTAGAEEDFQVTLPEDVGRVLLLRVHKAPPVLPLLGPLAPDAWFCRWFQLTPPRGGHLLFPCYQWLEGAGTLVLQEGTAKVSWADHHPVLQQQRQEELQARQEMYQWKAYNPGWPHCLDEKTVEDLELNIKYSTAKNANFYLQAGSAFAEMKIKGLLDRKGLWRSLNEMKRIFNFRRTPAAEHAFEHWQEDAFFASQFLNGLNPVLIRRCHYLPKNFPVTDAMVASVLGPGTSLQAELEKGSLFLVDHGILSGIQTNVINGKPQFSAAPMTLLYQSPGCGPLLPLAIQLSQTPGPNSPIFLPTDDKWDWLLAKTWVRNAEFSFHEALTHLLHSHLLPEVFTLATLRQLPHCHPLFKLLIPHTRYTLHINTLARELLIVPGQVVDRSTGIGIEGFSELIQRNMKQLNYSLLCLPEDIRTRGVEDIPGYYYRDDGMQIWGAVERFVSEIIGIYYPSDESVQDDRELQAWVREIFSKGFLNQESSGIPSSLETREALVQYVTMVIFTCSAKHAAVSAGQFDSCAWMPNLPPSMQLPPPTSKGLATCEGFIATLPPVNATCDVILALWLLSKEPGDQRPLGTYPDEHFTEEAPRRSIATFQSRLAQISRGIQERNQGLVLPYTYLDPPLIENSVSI
The target in data set [9] is human platelet 12-lipoxygenase (12-LOX) (Homo sapiens (Human), UniProt P18054). The conditions noted are these: for IC50: read-out: IC50 [+SD], Table 1, UV-vis cuvette-based assay in triplicate.
Chain of human platelet 12-lipoxygenase (12-LOX) (P18054 whole entry): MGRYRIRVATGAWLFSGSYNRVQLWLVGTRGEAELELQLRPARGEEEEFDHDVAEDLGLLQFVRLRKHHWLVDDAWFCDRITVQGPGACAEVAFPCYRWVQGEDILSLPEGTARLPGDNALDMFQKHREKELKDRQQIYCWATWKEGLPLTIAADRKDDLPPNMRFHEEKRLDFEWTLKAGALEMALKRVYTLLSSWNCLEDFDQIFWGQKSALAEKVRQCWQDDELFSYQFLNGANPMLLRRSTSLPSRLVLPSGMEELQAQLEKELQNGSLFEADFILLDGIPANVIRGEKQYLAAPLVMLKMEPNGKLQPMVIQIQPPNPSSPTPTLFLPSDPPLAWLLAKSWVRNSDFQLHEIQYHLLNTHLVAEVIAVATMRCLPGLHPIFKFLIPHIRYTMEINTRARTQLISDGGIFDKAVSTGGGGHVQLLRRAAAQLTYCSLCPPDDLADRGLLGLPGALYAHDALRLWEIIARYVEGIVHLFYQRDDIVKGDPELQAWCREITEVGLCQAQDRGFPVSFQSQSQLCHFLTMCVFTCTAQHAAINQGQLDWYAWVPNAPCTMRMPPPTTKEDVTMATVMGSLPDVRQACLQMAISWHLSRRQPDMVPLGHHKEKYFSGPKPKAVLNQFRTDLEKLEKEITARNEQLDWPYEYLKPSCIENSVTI

Chain of 12-LOX (P18054 whole entry): as above

For the compound `COc1cccc(CNc2ccc(S(=O)(=O)Nc3nc4ccccc4o3)cc2)c1O` [Compound 36, N-(benzo[d]oxazol-2-yl)-4-((2-hydroxy-3-methoxybenzyl)amino)benzenesulfonamide], the mode of inhibition result at 12-LOX was “mixed inhibitors”. Further, the “glucose-stimulated insulin secretion with cytokines” value in data set [1] is on record as “Uncoupling of glucose-stimulated insulin secretion by cytokines is inhibited”. In [2], the “PBS buffer (pH 7.4) stability at 48 h (%)” value is 100%. Besides, the “PAR4-AP-induced calcium mobilization (in words)” value in the data set on washed human platelets [3] is reported as “Calcium mobilization was decreased; also recorded: Comparable results”. In addition, the solubility in data set [4] (PBS buffer, pH 7.4, aqueous buffer) is above 0.06 mg/mL. Besides, the “improvement of solubility in buffer” value in [4] (relative to ML355) is above 10 fold. Further, the half-life in data set [5] (microsomes, rat, in the presence of NADPH, read-out: Microsomal stability T1/2) is above 30 min. Besides, the “microsomal degradation without NADPH” value in [5] (without NADPH present over a 1 h period) is “^bRepresents the stability in the presence of NADPH. 35 and 36 showed no degradation without NADPH present over a 1 h period”. The “mouse plasma stability remaining at 2 h (%)” value in the data set “mouse plasma stability” is 100%. The “PAR4-AP induced platelet aggregation (in words)” value in the data set with washed human platelets [6] is reported as “Comparable results”. In addition, the “permeability (1 × 10^−6 cm/s)” value in [7] is 168^c 1 × 10^−6 cm/s. Also, the “inhibition of 12-HETE in mouse beta cells (in words)” value with Mouse beta cells (BTC3) is on record as “Comparable results”.

`COc1cccc(CNc2ccc(S(=O)(=O)Nc3nccs3)cc2)c1O` [Compound 1, 4-(2-hydroxy-3-methoxybenzylamino)-N-(thiazol-2-yl)benzenesulfonamide] showed an IC50 in data set [8] above 40 µM.

Regarding `O=S(=O)(Nc1nccs1)c1ccc(NCc2ccccc2)cc1` [Compound 8, 4-(benzylamino)-N-(thiazol-2-yl)benzene sulfonamide], in data set [9], the “12-LOX inhibitory activity (SAR, in words)” value (“12-LOX inhibitory activity” for short) is reported as “complete loss of activity” and the IC50 is above 40 µM.

With `O=S(=O)(Nc1nccs1)c1ccc(NCc2ccccc2O)cc1` [Compound 9, 4-(2-hydroxybenzylamino)-N-(thiazol-2-yl)benzene sulfonamide], in data set [9], the “12-LOX inhibitory activity” value is listed as “complete loss of activity” and the IC50 is above 40 µM.

`Nc1ccccc1CNc1ccc(S(=O)(=O)Nc2nccs2)cc1` [Compound 13, 4-(2-aminobenzylamino)-N-(thiazol-2-yl)benzene sulfonamide]: in data set [9], the “12-LOX inhibitory activity” value is listed as “negated all 12-LOX inhibitory activity” and the IC50 was above 40 µM.

As for `O=S(=O)(Nc1nccs1)c1ccc(NCc2cccc(O)c2)cc1` [Compound 14, 4-(3-hydroxybenzylamino)-N-(thiazol-2-yl)benzene sulfonamide], the IC50 in [9] is above 40 µM.
